The text below walks through data of ChEMBL document CHEMBL1201862, “PubChem BioAssay data set” (2004).

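A five-concentration, 48-hour dose response in 96-well plates underlies each endpoint, interpolated linearly between surrounding concentrations. At the GI50, growth is halved.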 Calls of active or inactive are those of the source. No stated cut-off is given here; in the data, active = GI50 up to about 1.1 µM and inactive = higher.

Test systems include SF-539; NCI/ADR-RES; CAKI-1; SK-MEL-28; A498; CCRF-CEM; SF-295; MDA-MB-435; 786-0; HOP-62; NCI-H23; MCF7; COLO 205; MDA-MB-231; UACC-62; K562; SF-268; SR; OVCAR-5; HOP-92.
Assay in all cases: NCI tumour cell line growth inhibition, 48 h

`Nn1c(Cc2ccccc2)n[nH]c1=O`: the GI50 with SF-539, in the experiment with NCI/ADR-RES, in the experiment with CAKI-1, in the experiment with SK-MEL-28, with A498 and in the experiment with CCRF-CEM was > 100 µM (inactive) each time. For the same compound, the GI50 with SF-295, with MDA-MB-435, in the experiment on 786-0, in the experiment with HOP-62, in the experiment with NCI-H23 and in the experiment with MCF7 was > 100 µM (inactive) throughout. The GI50 in the experiment with COLO 205, in the experiment on MDA-MB-231, in the experiment with UACC-62, with K562, in the experiment on SF-268 and with SR was > 100 µM (inactive) each time. For the same compound, the GI50 in the experiment on OVCAR-5 is > 100 µM (inactive).
As to `Cl.O=C(O)c1cccnc1`, the GI50 in the experiment with HOP-92 was > 100 µM (inactive); with SF-539, 34.8 µM (inactive); in the experiment on NCI/ADR-RES, > 100 µM (inactive); with CAKI-1, > 100 µM (inactive); with SK-MEL-28 it was > 100 µM (inactive); with CCRF-CEM, > 100 µM (inactive). Moreover, the GI50 with SF-295, in the experiment on MDA-MB-435, in the experiment with 786-0, with HOP-62, with NCI-H23 and in the experiment with MCF7 was > 100 µM (inactive) in each case. Further, the GI50 with COLO 205 is > 100 µM (inactive); in the experiment on MDA-MB-231, > 100 µM (inactive); in the experiment on K562, > 100 µM (inactive); in the experiment on SF-268, > 100 µM (inactive); with SR, > 100 µM (inactive); in the experiment with OVCAR-5, 64.4 µM (inactive).
For the compound `CC(=O)NC1(C)CCC(C(C)(C)NC(C)=O)CC1` (stereo not drawn), the GI50 with SF-539, in the experiment on NCI/ADR-RES, in the experiment with CAKI-1, in the experiment on SK-MEL-28, in the experiment on A498 and in the experiment on CCRF-CEM was > 100 µM (inactive) each time. The GI50 with SF-295, with MDA-MB-435, in the experiment with 786-0, in the experiment on HOP-62, in the experiment with NCI-H23 and with MCF7 was > 100 µM (inactive) in each case. Moreover, the GI50 in the experiment with COLO 205, in the experiment with MDA-MB-231, in the experiment with UACC-62, in the experiment with K562, in the experiment on SF-268 and in the experiment on SR was > 100 µM (inactive) throughout. Besides, the GI50 in the experiment with OVCAR-5 is > 100 µM (inactive).
Regarding `CSc1nc(-c2ccccc2)nc(C(C#N)C#N)n1`, the GI50 in the experiment with HOP-92, with SF-539, with NCI/ADR-RES, in the experiment on CAKI-1, with SK-MEL-28 and with A498 was > 100 µM (inactive) throughout. Moreover, the GI50 with CCRF-CEM, in the experiment with SF-295, in the experiment on MDA-MB-435, with 786-0, with HOP-62 and with NCI-H23 was > 100 µM (inactive) throughout. The GI50 with MCF7, with COLO 205, with MDA-MB-231, in the experiment on UACC-62, in the experiment with SF-268 and in the experiment with OVCAR-5 was > 100 µM (inactive) in each case.
For the compound `CSC(=S)NN=C1CCCC1.CSC(=S)NN=C1CCCC1.[Zn+2]`, the GI50 with HOP-92 is 0.0415 µM (active); with SF-539, 21.3 µM (inactive); in the experiment with NCI/ADR-RES, > 100 µM (inactive); in the experiment on CAKI-1 it was 46.7 µM (inactive); in the experiment on SK-MEL-28, 72.4 µM (inactive); in the experiment on A498, > 100 µM (inactive). Also, the GI50 was < 0.01 µM (active) in the experiment on CCRF-CEM; 16.8 µM (inactive) with SF-295; 28.4 µM (inactive) in the experiment on MDA-MB-435; 33.5 µM (inactive) in the experiment with 786-0; 28.3 µM (inactive) in the experiment on HOP-62; > 100 µM (inactive) in the experiment with NCI-H23. In addition, the GI50 with MCF7 was 34.7 µM (inactive); in the experiment with COLO 205, 34.6 µM (inactive); in the experiment with MDA-MB-231, 17.8 µM (inactive); in the experiment on UACC-62, 28.2 µM (inactive); with K562, 50.4 µM (inactive); in the experiment with SF-268, 34.1 µM (inactive). Moreover, the GI50 in the experiment on OVCAR-5 was 31.3 µM (inactive).
In the case of `CC(=O)c1c(O)c(C)c(O)c(Cc2c(O)c3c(c(C(=O)/C=C/c4ccccc4)c2O)OC(C)(C)C=C3)c1O` [ROTTLERIN], the GI50 was 1.62 µM (inactive) in the experiment on HOP-92; 2.99 µM (inactive) in the experiment with SF-539; 2.53 µM (inactive) with NCI/ADR-RES; 2.91 µM (inactive) with CAKI-1; 2.86 µM (inactive) with SK-MEL-28; 1.95 µM (inactive) with A498. For the same compound, the GI50 is 2.99 µM (inactive) in the experiment on CCRF-CEM; 2.85 µM (inactive) in the experiment with SF-295; 2.74 µM (inactive) with MDA-MB-435; 2.85 µM (inactive) in the experiment with 786-0; 2.37 µM (inactive) in the experiment on NCI-H23; 3.13 µM (inactive) with MCF7. Besides, the GI50 with COLO 205 was 1.68 µM (inactive); with MDA-MB-231, 2.08 µM (inactive); with UACC-62, 2.95 µM (inactive); with K562 it was 1.07 µM (active); with SF-268 it was 3.61 µM (inactive); in the experiment on OVCAR-5, 3.56 µM (inactive).
For the compound `OC1CCN2Cc3ccccc3N=C12` (stereo not drawn), the GI50 in the experiment with HOP-92, in the experiment on SF-539, in the experiment on NCI/ADR-RES, in the experiment on CAKI-1, in the experiment on SK-MEL-28 and in the experiment on A498 was > 100 µM (inactive) each time. The GI50 in the experiment on CCRF-CEM, in the experiment on SF-295, with MDA-MB-435, in the experiment with 786-0, with HOP-62 and in the experiment with NCI-H23 was > 100 µM (inactive) in each case. The GI50 with MCF7, with COLO 205, in the experiment on MDA-MB-231, in the experiment with UACC-62, in the experiment on K562 and in the experiment with SF-268 was > 100 µM (inactive) each time. Further, the GI50 with OVCAR-5 was > 100 µM (inactive).
As to `CC(C)(C)c1cc(C(C)(C)C)c(SS(=O)(=O)O)c(O)c1O`, the GI50 in the experiment on HOP-92 was 84.1 µM (inactive); in the experiment on SF-539, 15.1 µM (inactive); with NCI/ADR-RES, 58.1 µM (inactive); in the experiment with CAKI-1 it was 52.2 µM (inactive); in the experiment with SK-MEL-28, 81.8 µM (inactive); in the experiment on A498, 54.7 µM (inactive). In addition, the GI50 in the experiment with CCRF-CEM was 49 µM (inactive); in the experiment with SF-295 it was 31.8 µM (inactive); with MDA-MB-435, 23.9 µM (inactive); in the experiment on 786-0, 63.7 µM (inactive); in the experiment on HOP-62 it was 54.6 µM (inactive); in the experiment with NCI-H23, > 100 µM (inactive). Besides, the GI50 in the experiment with MCF7 was 36.3 µM (inactive); in the experiment with COLO 205 it was 46.5 µM (inactive); with MDA-MB-231, 52.7 µM (inactive); in the experiment with UACC-62, 21.5 µM (inactive); in the experiment on K562, 0.246 µM (active); in the experiment with SF-268, 13.4 µM (inactive). In the experiment with OVCAR-5, the GI50 was > 100 µM (inactive).
On to `CC(=O)Nc1ccc(C(=O)NN2C(=O)C(Cl)C2c2ccc(Cl)cc2)cc1` (stereo not drawn), for which the GI50 in the experiment on HOP-92 was 26.1 µM (inactive); in the experiment on SF-539, 21.6 µM (inactive); in the experiment on NCI/ADR-RES, > 100 µM (inactive); in the experiment with SK-MEL-28 it was 52.5 µM (inactive); with CCRF-CEM, > 100 µM (inactive); in the experiment on SF-295, 20.6 µM (inactive). The GI50 was > 100 µM (inactive) in the experiment on MDA-MB-435; 18.7 µM (inactive) with 786-0; 22.2 µM (inactive) with HOP-62; 44.8 µM (inactive) with NCI-H23; > 100 µM (inactive) with MCF7; > 100 µM (inactive) in the experiment with COLO 205. Moreover, the GI50 with MDA-MB-231 is 22.1 µM (inactive); with UACC-62 it was > 100 µM (inactive); in the experiment with K562 it was > 100 µM (inactive); in the experiment on SF-268 it was 23.3 µM (inactive); in the experiment with SR it was > 100 µM (inactive); in the experiment with OVCAR-5, > 74.3 µM (inactive).
For the compound `NC1=CN(CCCO)C2=N/C(=C\c3ccco3)C(=O)N12`, the GI50 in the experiment on HOP-92, in the experiment with SF-539, in the experiment with NCI/ADR-RES, with CAKI-1, with SK-MEL-28 and with A498 was > 100 µM (inactive) in each case. The GI50 with CCRF-CEM, in the experiment with SF-295, in the experiment on MDA-MB-435, in the experiment on 786-0, in the experiment on HOP-62 and in the experiment on NCI-H23 was > 100 µM (inactive) each time. Besides, the GI50 in the experiment on MCF7, in the experiment with COLO 205, in the experiment with MDA-MB-231, in the experiment on UACC-62, in the experiment with K562 and in the experiment with SF-268 was > 100 µM (inactive) in each case. For the same compound, the GI50 with OVCAR-5 is > 100 µM (inactive).
In the case of `CC/C(=C/OC)P1(=O)OC(C)(C)CN1C(C)(C)C` (stereo not drawn), the GI50 with SF-539, in the experiment with NCI/ADR-RES, in the experiment on CAKI-1, in the experiment with A498, in the experiment on SF-295 and in the experiment with MDA-MB-435 was > 100 µM (inactive) throughout. In addition, the GI50 in the experiment with 786-0, in the experiment on HOP-62, in the experiment with NCI-H23, in the experiment with MCF7, in the experiment with COLO 205 and with MDA-MB-231 was > 100 µM (inactive) throughout. Further, the GI50 in the experiment on UACC-62, in the experiment with K562, in the experiment with SF-268, in the experiment on SR and in the experiment on OVCAR-5 was > 100 µM (inactive) throughout.
